Reference: patent US20230414575A1, “MK2 ACTIVATING COMPOUNDS FOR USE IN TREATING VASCULAR LEAK AND ENDOTHELIAL BARRIER DISORDERS” (Akttyva Therapeutics, Inc., priority 2020, published 2023)

Columns and labels:
MK2 [1] = molecular target: T1, MK2 (Rattus norvegicus, UniProt Q80ZF4); test: Western blot of HSP-27 phosphorylation in rat microvascular endothelial cells; assay type: cell-based; settings: 20 μM, 30 minutes, 37° C., of five compounds tested
T1 construct: endogenous in cells; host or cells: rat microvascular endothelial cells (RMVEC)
T1 sequence (Q80ZF4 1-386): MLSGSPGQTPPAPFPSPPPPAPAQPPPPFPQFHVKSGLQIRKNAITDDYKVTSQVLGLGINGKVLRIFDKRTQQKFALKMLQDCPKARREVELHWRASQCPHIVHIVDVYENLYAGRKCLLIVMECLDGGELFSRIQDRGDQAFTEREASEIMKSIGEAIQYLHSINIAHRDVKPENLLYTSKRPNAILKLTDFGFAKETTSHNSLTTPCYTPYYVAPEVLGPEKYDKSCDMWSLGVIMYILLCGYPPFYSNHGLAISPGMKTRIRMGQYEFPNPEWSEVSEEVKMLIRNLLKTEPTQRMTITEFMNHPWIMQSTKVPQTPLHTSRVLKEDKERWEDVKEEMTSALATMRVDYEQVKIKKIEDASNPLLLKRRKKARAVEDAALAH
Experimental: In order to assess the functional activity of the putative MK2 binding activators, a series of these compounds (i.e., Leflunomide, Netupitant, Paliperidone, Lomitapide, and Perospirone) were analyzed by Western blot analysis. Rat microvascular endothelial cells were grown to confluency in 35 mm tissue culture dishes. The cells were treated with or without the putative MK2 binding activators at 20 μM concentration for 30 minutes at 37° C. As a positive control, one of the cell dishes was exposed to UV light for ca. 10 minutes. […] The membrane was washed, treated with a chemiluminescence substrate, and digitally imaged followed by quantification by densitometry. The intensity of detected signal was proportional to the MK2 activation potency of the tested compound.
Western blot results from the compounds analyzed by the above-described method are provided in FIG. 1 and graphically as a histogram plot in FIG. 2, after normalization for HSP-27 signal.
The two bands seen in each lane of the blots represent monomeric and dimeric forms of both phosphorylated and unphosphorylated HSP-27. The intensity of the bands was quantified by densitometry and then each raw readout was normalized by the signal intensity of unphosphorylated HSP-27, in order to correct for any differences in lysate load across the various treatment conditions.

MK2 [2] = molecular target: T1, MK2; test: ELISA MK2 cell-based activity assay (phospho-HSP-27), RMVEC cells; settings: compound 20 μM, 30 minutes, 37° C.; for Average Response HSP27: phospho-HSP27 ELISA
Experimental: (§1) The MK2 activator candidates, identified using the artificial intelligence (AI)-assisted docking approach, were tested in activity assays for lead selection against the MK2 target. MK2 activation was assessed using (a) a cell-based assay using rat microvascular endothelial cells (RMVEC) and (b) human cancer skin fibroblast cells (Malme-3M). In both assays, an Enzyme-linked ImmunoSorbent Assay (ELISA) technique was used to measure (HSP-27) phosphorylation (DYC2314-2, R&D Systems). Both cell lines were grown to confluency in a 96-well tissue culture plate and treated at 37° C. for 30 minutes with the test compounds at concentrations of 20 μM. The cells were subsequently lysed with a lysis solution containing 0.5% Triton X-100 and anti-proteolysis agents. The resulting lysates were then loaded onto ELISA plates coated with anti-rat phospho-HSP27. After incubation and washing, the plates were treated with an horseradish peroxidase (HRP)-conjugated anti-phospho-HSP27 secondary antibody and then measured for chemiluminescence. Higher activity compounds, acting on MK2, induced higher levels of HSP-27 phosphorylation, as measured by the ELISA.

MK2 [3] = molecular target: T2, MK2 (Homo sapiens, UniProt P49137); test: ELISA MK2 cell-based activity assay (phospho-HSP-27), Malme-3M cells; settings: for Ratio to Control / Pho-HSP27: Malme-3M cells, compound 20 μM, 30 minutes, 37° C.; for Pho-HSP27: phospho-HSP27 ELISA; for response in phospho-HSP27 ELISA, overall ranking: overall statement on compounds tested at 20 μM (Malme-3M and RMVEC cells)
T2 construct: endogenous in cells; host or cells: Malme-3M
T2 sequence (P49137 whole entry): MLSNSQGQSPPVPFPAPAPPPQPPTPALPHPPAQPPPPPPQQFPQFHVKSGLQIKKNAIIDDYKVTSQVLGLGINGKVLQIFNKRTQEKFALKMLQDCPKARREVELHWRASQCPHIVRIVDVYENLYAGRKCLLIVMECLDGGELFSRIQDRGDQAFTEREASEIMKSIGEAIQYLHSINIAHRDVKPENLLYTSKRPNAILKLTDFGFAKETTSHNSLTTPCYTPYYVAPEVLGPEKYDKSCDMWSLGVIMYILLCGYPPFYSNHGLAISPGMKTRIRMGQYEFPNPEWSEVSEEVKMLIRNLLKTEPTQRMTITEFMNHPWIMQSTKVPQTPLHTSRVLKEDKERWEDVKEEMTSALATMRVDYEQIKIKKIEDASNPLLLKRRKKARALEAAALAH
Experimental: as §1

Row | SMILES | increase in HSP-27 phosphorylation (Western blot, normalized for HSP-27 signal) (MK2 [1]) | Ratio Compound/control (MK2 [2]) | Average Response HSP27 (MK2 [2]) | Ratio to Control (MK2 [3]) | Pho-HSP27 (MK2 [3]) | response in phospho-HSP27 ELISA, overall ranking (MK2 [3])
1 | O=C(NC1CCN(CCCCC2(C(=O)NCC(F)(F)F)c3ccccc3-c3ccccc32)CC1)c1ccccc1-c1ccc(C(F)(F)F)cc1 [Compound 68, Lomitapide] | strongest increase in HSP-27 phosphorylation | 3.4 | 39.2 pg/mL | 37.7 | 848.5 pg/mL | most robust response
2 | Cc1cc(C(=O)Nc2cc(Nc3ccc4c(/C=C/c5ccccn5)n[nH]c4c3)ccc2F)n(C)n1 [Compound 74, Ag-13958] | – | 1.2 | 20.4 pg/mL | 0.7 | 15.2 pg/mL | –
3 | Fc1ccccc1-c1nc2ccn(Cc3ccc(-c4ccc(C(F)(F)F)cc4C(F)(F)F)nn3)cc-2n1 [Compound 66, Tegobuvir] | – | 1.2 | 26.2 pg/mL | 0.9 | 20.9 pg/mL | –
4 | COc1ccc(-c2ccc3ncc4c(c3c2)n(-c2ccc(N3CCNCC3)c(C(F)(F)F)c2)c(=O)n4C)cn1 [Compound 14, Bgt-226] | – | 1.1 | 19.4 pg/mL | 1.2 | 26.9 pg/mL | –
5 | CC(=O)Nc1nc2c(Oc3cc(-c4ccc(C(F)(F)F)cc4)ncn3)cccc2s1 [Compound 83, Amg-517] | – | 2.1 | 33.7 pg/mL | 1.3 | 29.9 pg/mL | –
6 | Cc1csc(-c2nnc(Nc3ccc(Oc4ncccc4-c4ccnc(N)n4)cc3)c3ccccc23)c1 [Compound 33, Amg- 900] | – | 1.6 | 20.4 pg/mL | 0.9 | 21.2 pg/mL | –
7 | Cc1nc2ccc(CN(C)c3ccc(C(=O)N[C@@H](CCC(=O)O)C(=O)O)s3)cc2c(=O)[nH]1 [Compound 41, Raltitrexed] | – | 1.1 | 25.4 pg/mL | 1.7 | 38.7 pg/mL | –
8 | CN(C)Cc1c(C(=O)NCCOc2ccc(C(=O)NO)cc2)oc2ccccc12 [Compound 54, Abexinostat] | – | 2.3 | 48.4 pg/mL | 37.2 | 836.0 pg/mL | most robust response
9 | C[C@@H](Oc1cc(-n2cnc3ccc(CN4CCN(C)CC4)cc32)sc1C(N)=O)c1ccccc1C(F)(F)F [Compound 29, Gsk-461364] | – | 1.8 | 39.0 pg/mL | 1.0 | 22.1 pg/mL | –
